“Also recorded” adds a separate entry of the source. Structures can show the parent of a compound that is named as a salt.

Here are results for 2 compounds from patent US7803842B2, “Choline esters useful for the treatment of cognitive dysfunctions and enhancement of memory, learning and cognition” (priority 2004, dated 2010).

In series [1] the test system is scopolamine impaired rats. As to the kind of experiment: Water maze visible platform task (pre-test) in scopolamine impaired rats. It is filed as in vivo, Long Evans rats. The settings on record: scopolamine 0.1 mg/kg i.p.; hydrobromide. The method, then: (§1) Male Long-Evans rats (3 months of age) were administered either saline, donepezil (0.75 mg/kg), or PP-100 (3.0 mg/kg or 40.0 mg/kg) by oral gavage for 10 days prior to (and during the 5 days of) testing in a water maze task. The compounds were evaluated for their ability to reverse the amnestic effects of scopolamine (0.1 mg/kg) in this task.
The animals were randomly assigned to one of 5 groups (n=10/group) and administered one daily dose of either of two doses of the choline derivative PP-100 (3 or 40 mg/kg), donepezil HCL (0.75 mg/kg), or vehicle (0.9% saline), via oral gavage (p.o.) beginning ten days prior to initiation of the water maze task. Daily dosing continued through the initial day of visible platform testing and the subsequent five days of water maze testing (i.e., on hidden platform test days as well as probe trial days). […]
The water maze experiment was performed in a circular pool (diameter=180 cm, height=76 cm) made of black plastic. […] Swimming activity of each rat was monitored via a television camera mounted overhead, which relayed information including latency to find the platform, total distance traveled, time and distance spent in each quadrant etc. to a video tracking system (Actimetrics, Evanston, Ill.). […]

For series [2], the system named is scopolamine impaired rats. As to the kind of experiment: Water maze hidden platform task in scopolamine impaired rats. It is filed as in vivo, Long Evans rats. The settings on record: for Hidden platform task performance (latency, swim path length) vs saline controls; reversal of scopolamine effect: donepezil 0.75 mg/kg p.o. daily with scopolamine 0.1 mg/kg i.p., test days 3 and 4, hydrochloride. The method, then:
as §1
The animals were randomly assigned to one of 5 groups (n=10/group) and administered one daily dose of either of two doses of the choline derivative PP-100 (3 or 40 mg/kg), donepezil HCL (0.75 mg/kg), or vehicle (0.9% saline), via oral gavage (p.o.) beginning ten days prior to initiation of the water maze task. Daily dosing continued through the initial day of visible platform testing and the subsequent five days of water maze testing (i.e., on hidden platform test days as well as probe trial days). On both the single day of pre-testing (Visible Platform Test) as well as on each day of watermaze testing, thirty minutes prior to the first trial, 0.1 mg/kg of scopolamine hydrobromide was administered i.p. to four of the five groups (i.e., excluding the saline-saline group). Fifteen minutes after the scopolamine injection (or vehicle) each group was dosed with one of the test articles or vehicle (see Table 1 for an overview of the testing protocol). Test articles were prepared according to the supplied instructions, and aliquots of the solutions were stored (at −20° C.). Test agents were freshly thawed at the time of use.
In order to test and compare the effects of PP-100 on both acquisition and recall of spatial memories, the water maze hidden platform task was utilized. […] Scopolamine is known to impair performance in the water maze task, and blockage of scopolamine effects is known to reduce impairment in the water maze (e.g., Terry et al., Drug Dev. Res., 47:97 (1999).
The water maze experiment was performed in a circular pool (diameter=180 cm, height=76 cm) made of black plastic. The pool was filled with water to a depth of 35 cm and the water was maintained at 25.0±1.0° C. The pool was located in a large room with a number of extra-maze visual cues including geometric images (squares, triangles, circles etc.) hung on the wall, diffuse lighting, and black curtains used to hide the experimenter (visually) and the resting test subjects. Swimming activity of each rat was monitored via a television camera mounted overhead, which relayed information including latency to find the platform, total distance traveled, time and distance spent in each quadrant etc. to a video tracking system (Actimetrics, Evanston, Ill.).
For the water maze test itself, the escape platform was submerged. […]

For `CN1[C@@H]2C[C@@H](OC(=O)[C@H](CO)c3ccccc3)C[C@H]1[C@@H]1O[C@@H]12` [scopolamine, scopolamine hydrobromide], the “Effect on ability to locate a highly visible platform” value in series [1] is given as “tended to produce impairment; also recorded: led to some impairment”. The “Effect on learning in the hidden platform task (latency, swim distance)” value in series [2] (scopolamine 0.1 mg/kg i.p. 30 minutes before first trial) was “impaired learning”.

Turning to `COc1cc2c(cc1OC)C(=O)C(CC1CCN(Cc3ccccc3)CC1)C2` (racemic) [donepezil, (±)-2-[(1-benzyl-4-piperidyl)methyl]-5,6-dimethoxy-1-indanone hydrochloride], the “Hidden platform task performance (latency, swim path length) vs saline controls; reversal of scopolamine effect” value is on record as “did not differ (statistically) from saline controls” in series [2] and “appeared to at least partially reverse the effects of scopolamine” in series [2] (listed as Donepezil). Also, the “Hidden platform task performance vs saline controls” value in series [2] (with scopolamine 0.1 mg/kg i.p., donepezil 0.75 mg/kg or PP-100 3 or 40 mg/kg p.o., test days 1 and 2) was “generally performed less efficiently than saline controls”.
